Laboratory results from PMC3199867, “Targeting surface nucleolin with multivalent HB-19 and related Nucant pseudopeptides results in distinct inhibitory mechanisms depending on the malignant tumor cell type” (BMC Cancer, 2011).

Legend:
MMP-9 = assay: mRNA expression by RT-PCR in SW620 cells; format: cell-based, human; details: SW620, 10 μM, 24 hours post-seeding
Method: (§1) SW620 cells were cultured in the absence or presence of N7 before extraction for total RNA using RNeasy Mini Kit (Qiagen) according to the manufacturer's instructions. RT was carried out with oligo(dT) and 2-4 μg of total RNA using Superscript II Reverse Transcriptase (Invitrogen). PCR was performed in a RoboCycler 96 (Stratagene, La Jolla, CA, USA) with specific primers for human nucleolin (referred to as NCL) 5'-[…]-3' and 5'-[…]-3' (835 bp); glyceraldehyde-3-phosphate dehydrogenase (GAPDH) 5'-TGAAGG-[…]-3' and 5'-[…]-CCAC-3' (983 bp); nucleophosmin (NPM or B23) 5'-[…]-3' and 5'-[…]-3' (320 bp); matrix metalloproteinase-2 (MMP-2) 5'-[…]-3' and 5'-[…]-3' (580 bp); matrix metalloproteinase-9 (MMP-9) 5'-[…] TCAGAGC-3' and 5'-[…]-3' (243 bp); tissue inhibitor of metalloproteinase 1 (TIMP-1) 5'-[…]-3' and 5'-[…]-3' (667 bp); tissue inhibitor of metalloproteinase 2 (TIMP-2) 5'-[…]-3' and 5'-[…]-3' (405 bp). PCR amplification conditions were: 95°C for 5 min, 30 cycles at 95°C for 30 sec, 60°C for 30 sec and 72°C for 45 sec, and 72°C for 5 min (for NCL and GAPDH), 95°C for 5 min, 30 cycles at 95°C for 30 sec, 53°C for 30 sec and 72°C for 30 sec, and 72°C for 5 min (for NPM); 95°C for 5 min, 35 cycles at 95°C for 45 sec, 56°C for 45 sec and 72°C for 45 sec, and 72°C for 5 min (for MMP2 and MMP9); 95°C for 5 min, 30 cycles at 95°C for 45 sec, 59°C for 1 min and 72°C for 1 min 30 sec, and 72°C for 5 min (for TIMP1 and TIMP2).
(§2) Figure 6 Selective down regulation of MMP-9 and nucleolin transcripts in Nucant treated SW620 cells. A. SW620 cells in the absence (lanes -) and presence (lanes +) of 10 μM of N7 were cultured for 24, 48, and 72 hours. B. Dose dependent reduction of MMP-9 and nucleolin transcripts in response to Nucant treatment. Newly seeded SW620 cells were cultured in the absence (lanes 1) and presence of 2.5 (lanes 2), 5 (lanes 3) and 10 (lanes 4) […] of N6 for 20 hours. Total RNA extracts were prepared at different time points and the expression of various transcripts was analyzed by RT-PCR using specific primers (Methods). […]

nucleolin = assay: mRNA expression by RT-PCR in SW620 cells; format: cell-based, human; details: SW620, 10 μM, 24, 48 and 72 hours
Method: as §1, §2

nucleophosmin = assay: mRNA expression by RT-PCR in SW620 cells; format: cell-based, human; details: SW620, 10 μM, 24, 48 and 72 hours
Method: as §1, §2

melanoma TIII cell = assay: Cell adhesion; format: cell-based, murine; details: after 5 hours of cell seeding, vs untreated control, mean of at least 2 independent experiments
T29 cells = assay: Internucleosomal DNA fragmentation (low molecular weight DNA of nucleoplasm, agarose gel); format: cell-based, murine; details: T29 cells, 2.5, 5, 10, and 20 μM, 24 hours
From the text: Extraction of nuclei in buffer I (prepared as above) from viable cells results in the recovery of chromatin-free nucleoplasm. However, during cell death when DNA fragmentation occurs, the low molecular weight DNA fragments are recovered in the nucleoplasm. Consequently, supernatant of nuclear extracts from cells undergoing programmed cell death contain low molecular weight DNA fragments, whereas the pellet of the nuclear extracts contain the high molecular weight chromatin. By this experimental approach, DNA fragmentation could be analyzed without interference of the bulky DNA [51]. […] The DNA pellet was resuspended in electrophoresis buffer (10 mM Tris-HCI, pH 8.0, 1 mM EDTA) and analyzed by electrophoresis on 1.5% agarose gels containing […] ethydium bromide.
Figure 7 HB-19 and related multivalent Nucant pseudopeptides induce cell death associated with internucleosomal DNA fragmentation. […] Cell cultures (in triplicate) were monitored for viable cell number daily for 3 days. […] T29 cells seeded at 100,000/ml in 2 ml in the absence (0 μM) or presence of N7 at various concentrations 2.5, 5, 10 and 20 μM were cultured for 3 days and the number of viable cells was determined at day 1, 2, and 3 post-seeding. […] The nuclear extracts were analyzed by immunoblotting using anti-Nt Ab (Methods). […]

Substance	expression of MMP-9 transcripts (MMP-9)	transcripts coding nucleolin (nucleolin)	expression of transcripts coding nucleophosmin (nucleophosmin)	% Inhibition of cell Adhesion (melanoma TIII cell; 2.5 μM) [%]	% Inhibition of cell Adhesion (melanoma TIII cell; 5 μM) [%]	% Inhibition of cell Adhesion (melanoma TIII cell; 10 μM) [%]	% Inhibition of cell Adhesion (melanoma TIII cell; 20 μM) [%]	DNA fragmentation (T29 cells)
Ac-KAKPGKAKPGKAKPG-NH2 [Nucant N7, Presents hexavalently the pseudo-tripeptide Lysψ(CH2N)-Pro-Arg coupled to a similar template as in HB-19]	completely abolished	marked down regulation	not affected					
Ac-Lys-Aib-Gly-Lys-Aib-Gly-Lys-Aib-Gly-Lys-Aib-Gly-Lys-Aib-Gly-Lys-Aib-Gly-CONH2 [Nucant N6, Presents hexavalently the pseudo-tripeptide Lysψ(CH2N)-Pro-Arg coupled to the polypeptide template containing Aib]				15	26	38	55	Internucleosomal DNA cleavage
